Experiments:
[1] = system: Bacillus cereus; assay: Agar plate disc-diffusion antibacterial test; assay type: cell-based; details: nutrient agar, 37° C., 48 hours
Method: (§1) The agar plate disc-diffusion method was applied. Sterilized filter papers (6 mm in diameter) were wetted with 10 μL of a solution of 2-(benzo[d]oxazol-2-yl)-N′-(picolinoyloxy)acetimidamide (3) to be tested, containing 10 mg/mL in DMSO, and the discs were allowed to air dry. The discs were then placed onto the surface of agar plates (nutrient agar for bacteria and Sabouraud's dextrose agar for fungi) seeded with the test organism. Each plate contained 15 mL of the agar medium, previously seeded with 0.2 mL of the broth culture of each organism pregrown for 18 hours. The plates were incubated at 37° C. for 48 hours, and 72 hours for fungi. The inhibition zones was measured in mm. Discs impregnated with DMSO were used as a control, and its inhibition zone was subtracted from the tested compound actual inhibition zone.

[2] = system: Pseudomonas aeruginosa; assay: Agar plate disc-diffusion antibacterial test; assay type: cell-based; details: nutrient agar, 37° C., 48 hours
Method: as §1

[3] = system: Staphylococcus aureus; assay: Agar plate disc-diffusion antibacterial test; assay type: cell-based; details: nutrient agar, 37° C., 48 hours
Method: as §1

[4] = system: Escherichia coli; assay: Agar plate disc-diffusion antibacterial test; assay type: cell-based; details: nutrient agar, 37° C., 48 hours
Method: as §1

[5] = system: Aspergillus flavus; assay: Agar plate disc-diffusion antifungal test; assay type: cell-based; details: Sabouraud's dextrose agar, 72 hours
Method: as §1

[6] = system: Chrysosporium keratinophilum; assay: Agar plate disc-diffusion antifungal test; assay type: cell-based; details: Sabouraud's dextrose agar, 72 hours
Method: as §1

[7] = A = concentration of comp. = 10,000 μL
[8] = B = concentration of comp. = 30,000 μL
[9] = C = concentration of comp. = 50,000 μL

melting point: 156 to 158 °C
Compound: N/C(Cc1nc2ccccc2o1)=N\OC(=O)c1ccccn1 [Compound 3, 2-(benzo[d]oxazol-2-yl)-N′-(picolinoyloxy)acetimidamide]
inhibition zone, Bacillus Cereus, A [1, 7]: 25 mm | inhibition zone, Bacillus Cereus, B [1, 8]: 27 mm | inhibition zone, Bacillus Cereus, C [1, 9]: 39 mm | inhibition zone, Pseudomonas aeruginosa, A [2, 7]: 25 mm | inhibition zone, Pseudomonas aeruginosa, B [2, 8]: 31 mm | inhibition zone, Pseudomonas aeruginosa, C [2, 9]: 45 mm | inhibition zone, Staphylococcus aureus, A [3, 7]: 15 mm | inhibition zone, Staphylococcus aureus, B [3, 8]: 20 mm | inhibition zone, Staphylococcus aureus, C [3, 9]: 28 mm | inhibition zone, Escherichia coli, A [4, 7]: 29 mm | inhibition zone, Escherichia coli, B [4, 8]: 37 mm | inhibition zone, Escherichia coli, C [4, 9]: 53 mm | inhibition zone, Aspergillus flavus, A [5, 7]: 24 mm | inhibition zone, Aspergillus flavus, B [5, 8]: 27 mm | inhibition zone, Aspergillus flavus, C [5, 9]: 38 mm | inhibition zone, Chrysosporium keratinophilum, A [6, 7]: 23 mm | inhibition zone, Chrysosporium keratinophilum, B [6, 8]: 29 mm | inhibition zone, Chrysosporium keratinophilum, C [6, 9]: 48 mm

Source: US11905280B1, “2-(benzo[d]oxazol-2-yl)-N'-(picolinoyloxy)acetimidamide as an antimicrobial compound” (KING FAISAL UNIVERSITY, priority 2023, dated 2024)
